# Measured values published in US20250000843A1, “LIGNAN-INSPIRED COMPOUNDS, METHODS OF MAKING, AND USING THEREOF” (IOWAIBO, INC., priority 2023, published 2025).
# Legend:
# [1] = test system: MCF7 (human breast cancer cell line); assay: MTT toxicity assay in MCF7 breast cancer cells; format: cell-based
# Experimental: Toxicity of the dibenzyl butyl lactone derivative (3-[(3,4-dimethoxyphenyl)cyclopentyl], 4-[(3-hydroxyphenol)methyl]oxolan-2-one) in breast cancer cells was evaluated using MTT assay. The MTT toxicity test is a colorimetric assay to measure cells' metabolic activity by serving as a substrate of cellular enzymes that reduce the tetrazolium orange dye, MTT (3-(4,5-Dimethylthiazol-2-yl)-2,5-diphenyltetrazolium bromide) to its insoluble, formazan, giving a purple color. The rate of conversion is directly proportional to cells' mitochondrial metabolic activity via NAD (P) H-dependent cellular oxidoreductase enzymes and serves as a surrogate marker of cell viability.
# Cultures of MCF7 (human breast cancer cell line) working stock (5 passages) were established under standard culture conditions in Eagle's minimum essential medium (EMEM). EMEM was supplemented with 10% fetal bovine serum (FBS), 2 mM Glutamine and Pen/Strep, and Penicillin 0.01 mg/ml.
# Cells previously expanded were seeded in 96 well plates at 1.9×10^5 and 9.6×10^4 cells/plate for 24- and 72-hours treatment respectively. This concentration is known to show the best window for the MTT assay, with better sensitivity and low variability.
# 5 mg of powdered enterolactone, dibenzyl butyl lactone derivative enantiomer A, and dibenzyl butyl lactone derivative enantiomer B were dissolved in 500 μl of DMSO at room temperature. Eight-point curves, ⅓ dilutions (highest concentration 125 μM), were prepared.
# Twenty-four hours following the seeding process, the cells were washed once with phosphate buffered saline (PBS) and treated with the respective compounds in cell culture media. Each condition was tested in triplicates. For positive and negative controls, 8 mM methyl methane sulfonate (MMS) and DMSO 100% were used respectively.
# Following compound addition, the plates were incubated for 24 and 72 hours. After the treatment period, cells were washed twice with PBS and media was replaced with MTT reagent at 0.5 mg/ml in Dulbecco's modified Eagle medium (DMEM) without phenol red. The plates were gently shaken and incubated for 4 hours. After the incubation the medium was removed and replaced by DMSO. The plates were gently shaken to solubilize the formazan crystals. Absorbance was measured using an Envision multiplate reader at a wavelength of 570 nm.
# Eight serial dilutions were prepared (125.00, 41.67, 13.89, 4.63, 1.54, 0.51, 0.17 and 0.06 µM to evaluate the compounds (in triplicate). MTT results showing cell death values above 20% are considered as having a significant toxic effect.
# MTT assay results are shown in Tables 2-7 and expressed as the percentage of cell death after treatment.
# [2] = test system: human induced pluripotent stem (iPS) cells; format: cell-based; settings: human
# Experimental: The dibenzyl butyl lactone derivative enantiomer A and B were compared to enterolactone and tested to determine toxicity using a human pluripotent stem (hPS) cell-based assay that predicts the developmental toxicity potential. […] The current study was conducted using human induced pluripotent stem (iPS) cells.
# The impact of test article exposure on ornithine and cystine metabolism in human induced pluripotent stem (iPS) cells was measured for three test articles (dibenzyl butyl lactone derivative enantiomer A, dibenzyl butyl lactone derivative enantiomer B, and enterolactone) and prediction of the potential for developmental toxicity was made through application of the hPS cell-based assay. Exposure spanned a range of eight treatment levels per test article ranging from 0.03-100 μM.
# The observed decrease in the o/c ratio following exposure to each test article is indicative of the potential for developmental toxicity and/or embryo lethality in vivo at or above the dTP concentration. FIGS. 15A-C show the o/c ratio of dibenzyl butyl lactone derivative enantiomer A (FIG. 15A), dibenzyl butyl lactone derivative enantiomer B (FIG. 15B), and (+/−) enterolactone (FIG. 15C). The graphs in FIGS. 15A-C show the cell viability and o/c/ ratio over concentrations of 0.03-100 μM with the straight horizontal line illustrating the developmental toxicity threshold of 0.85.
smiles,measurement,setting,value
"O=C1OCC(Cc2ccc3c(c2)OCO3)/C1=C\c1cccc(O)c1 (single isomer, unassigned) [Enantiomer A, 3-[(3,4-dimethoxyphenyl)cyclopentyl], 4-[(3-hydroxyphenol)methyl]oxolan-2-one]",Cell death #1 (%),"[1]; MCF7, 24 hours, 0.06 μM",−25.82%
same,Cell death #2 (%),"[1]; MCF7, 24 hours, 0.06 μM",−37.36%
same,Cell death #3 (%),"[1]; MCF7, 24 hours, 0.06 μM",−35.43%
same,Cell death (%) MEAN,"[1]; MCF7, 24 hours, 0.06 μM",−32.87%
same,Cell death #1 (%),"[1]; MCF7, 24 hours, 0.17 μM",−27.36%
same,Cell death #2 (%),"[1]; MCF7, 24 hours, 0.17 μM",−44.28%
same,Cell death #3 (%),"[1]; MCF7, 24 hours, 0.17 μM",−55.05%
same,Cell death (%) MEAN,"[1]; MCF7, 24 hours, 0.17 μM",−42.23%
same,Cell death #1 (%),"[1]; MCF7, 24 hours, 0.51 μM",−57.74%
same,Cell death #2 (%),"[1]; MCF7, 24 hours, 0.51 μM",−18.51%
same,Cell death #3 (%),"[1]; MCF7, 24 hours, 0.51 μM",−45.82%
same,Cell death (%) MEAN,"[1]; MCF7, 24 hours, 0.51 μM",−40.69%
same,Cell death #1 (%),"[1]; MCF7, 24 hours, 1.54 μM",−48.89%
same,Cell death #2 (%),"[1]; MCF7, 24 hours, 1.54 μM",−51.59%
same,Cell death #3 (%),"[1]; MCF7, 24 hours, 1.54 μM",−43.51%
same,Cell death (%) MEAN,"[1]; MCF7, 24 hours, 1.54 μM",−48.00%
same,Cell death #1 (%),"[1]; MCF7, 24 hours, 4.63 μM",−58.89%
same,Cell death #2 (%),"[1]; MCF7, 24 hours, 4.63 μM",−57.74%
same,Cell death #3 (%),"[1]; MCF7, 24 hours, 4.63 μM",−34.66%
same,Cell death (%) MEAN,"[1]; MCF7, 24 hours, 4.63 μM",−50.43%
same,Cell death #1 (%),"[1]; MCF7, 24 hours, 13.89 μM",−61.20%
same,Cell death #2 (%),"[1]; MCF7, 24 hours, 13.89 μM",−35.05%
same,Cell death #3 (%),"[1]; MCF7, 24 hours, 13.89 μM",−25.05%
same,Cell death (%) MEAN,"[1]; MCF7, 24 hours, 13.89 μM",−40.43%
same,Cell death #1 (%),"[1]; MCF7, 24 hours, 41.67 μM",−83.51%
same,Cell death #2 (%),"[1]; MCF7, 24 hours, 41.67 μM",−78.89%
same,Cell death #3 (%),"[1]; MCF7, 24 hours, 41.67 μM",−45.05%
same,Cell death (%) MEAN,"[1]; MCF7, 24 hours, 41.67 μM",−69.15%
same,Cell death #1 (%),"[1]; MCF7, 24 hours, 125.00 μM",98.41%
same,Cell death #2 (%),"[1]; MCF7, 24 hours, 125.00 μM",95.72%
same,Cell death #3 (%),"[1]; MCF7, 24 hours, 125.00 μM",100.72%
same,Cell death (%) MEAN,"[1]; MCF7, 24 hours, 125.00 μM",98.29%
same,Cell death #1 (%),"[1]; MCF7, 72 hours, 0.06 μM",−51.17%
same,Cell death #2 (%),"[1]; MCF7, 72 hours, 0.06 μM",−29.40%
same,Cell death #3 (%),"[1]; MCF7, 72 hours, 0.06 μM",−11.64%
same,Cell death (%) MEAN,"[1]; MCF7, 72 hours, 0.06 μM",−30.74%
same,Cell death #1 (%),"[1]; MCF7, 72 hours, 0.17 μM",−56.87%
same,Cell death #2 (%),"[1]; MCF7, 72 hours, 0.17 μM",−58.21%
same,Cell death #3 (%),"[1]; MCF7, 72 hours, 0.17 μM",−50.17%
same,Cell death (%) MEAN,"[1]; MCF7, 72 hours, 0.17 μM",−55.08%
same,Cell death #1 (%),"[1]; MCF7, 72 hours, 0.51 μM",−79.98%
same,Cell death #2 (%),"[1]; MCF7, 72 hours, 0.51 μM",−51.84%
same,Cell death #3 (%),"[1]; MCF7, 72 hours, 0.51 μM",−72.61%
same,Cell death (%) MEAN,"[1]; MCF7, 72 hours, 0.51 μM",−68.15%
same,Cell death #1 (%),"[1]; MCF7, 72 hours, 1.54 μM",−57.87%
same,Cell death #2 (%),"[1]; MCF7, 72 hours, 1.54 μM",−73.62%
same,Cell death #3 (%),"[1]; MCF7, 72 hours, 1.54 μM",−58.88%
same,Cell death (%) MEAN,"[1]; MCF7, 72 hours, 1.54 μM",−63.46%
same,Cell death #1 (%),"[1]; MCF7, 72 hours, 4.63 μM",−90.37%
same,Cell death #2 (%),"[1]; MCF7, 72 hours, 4.63 μM",−113.15%
same,Cell death #3 (%),"[1]; MCF7, 72 hours, 4.63 μM",−79.31%
same,Cell death (%) MEAN,"[1]; MCF7, 72 hours, 4.63 μM",−94.28%
same,Cell death #1 (%),"[1]; MCF7, 72 hours, 13.89 μM",−43.13%
same,Cell death #2 (%),"[1]; MCF7, 72 hours, 13.89 μM",−52.85%
same,Cell death #3 (%),"[1]; MCF7, 72 hours, 13.89 μM",−46.15%
same,Cell death (%) MEAN,"[1]; MCF7, 72 hours, 13.89 μM",−47.38%
same,Cell death #1 (%),"[1]; MCF7, 72 hours, 41.67 μM",15.49%
same,Cell death #2 (%),"[1]; MCF7, 72 hours, 41.67 μM",4.10%
same,Cell death #3 (%),"[1]; MCF7, 72 hours, 41.67 μM",2.76%
same,Cell death (%) MEAN,"[1]; MCF7, 72 hours, 41.67 μM",7.45%
same,Cell death #1 (%),"[1]; MCF7, 72 hours, 125.00 μM",99.92%
same,Cell death #2 (%),"[1]; MCF7, 72 hours, 125.00 μM",99.92%
same,Cell death #3 (%),"[1]; MCF7, 72 hours, 125.00 μM",99.58%
same,Cell death (%) MEAN,"[1]; MCF7, 72 hours, 125.00 μM",99.80%
same,breast cancer cell death as compared to enterolactone,"[1]; MCF7, at higher concentrations, 24 hours and 72 hours post-treatment",increased breast cancer cell death as compared to enterolactone
same,TP Concentration,[2],34.8 µM
same,"TP concentration, fold lower than (+/−) enterolactone TP",[2],4-6 fold
same,dTP Concentration,[2],21.4 µM
same,dTP and TP concentrations compared with anti-cancer drugs tested in this assay,[2],higher than >90% of the anti-cancer drugs
same,fold difference between dTP and TP,[2],≤ 3 fold
same,similarity of dTP concentrations between all three compounds,[2],≤ 2 fold
